Test system: p70S6K and 4E-BP1 phosphorylation (mTOR substrates)
Experiment: Immunoblot of p70S6K and 4E-BP1 phosphorylation in VSMC
Type: cell-based, mouse
Experimental: Western blot analysis: The cells were plated in a 100-mm culture dish in DMEM supplemented with 20% FBS for 24 h at 37° C., followed by serum starvation for 48 h. Cells were then treated with different reagents for 30 min. Cells were subsequently lysed on ice for 30 min in RIPA buffer [150 mM NaCl, 100 mM Tris (pH 8.0), 1% Triton X-100, 1% deoxycholic acid, 0.1% SDS, 5 mM EDTA, and 10 mM NaF] supplemented with 1 mM sodium vanadate, 2 mM leupeptin, 2 mM aprotinin, 1 mM phenylmethylsulfonyl fluoride (PMSF), 1 mM DTT, and 2 mM pepstatin A. After centrifugation at 14,000 rpm for 30 min, the supernatant was harvested as the total cellular protein extract, and stored at −70° C. The protein concentration was determined using Bio-Rad protein assay reagent (Richmond, Calif.). The total cellular protein extracts were separated by SDS-polyacrylamide gel electrophoresis (SDS-PAGE) and transferred to nitrocellulose membrane in 20 mM Tris-HCl (pH 8.0) containing 150 mM glycine and 20% (v/v) methanol.
Blots were washed three times in PBS buffer, followed by incubation with the appropriate HRP-linked IgG. The specific proteins in the blots were visualized using an enhanced chemiluminescence reagent (NEN, Boston, Mass.).
Starved murine VSMCs were incubated for 20 min with leptin (100 ng/ml) or 10% FBS, in the absence or presence of rapamycin (100 nmol/L).
VSMC were plated on 100-mm dishes, serum starved for 72 h in DMEM containing 0.1% FBS, and stimulated with 0.6 or 6 nM (10 or 100 ng/ml) leptin. Extracts were prepared by brief sonication in HKM buffer [40 mM HEPES-KOH (pH 7.6), 7.5 mM MgCl2, 0.5 mM DTT] or, in the case of Akt phosphorylation studies, by lysing cells on ice for 30 min in RIPA buffer. 70 μg of protein per sample were subjected to immunoblotting by standards protocols. Imaging and densitometry were performed on an Odyssey infrared system (Li-Cor, Lincoln, Neb.).

Q: What does the source list for “Leptin: recombinant leptin; hormone derived from adipose tissue, encoded by the Ob gene”?
A: phosphorylation of S6K and 4EBP-1 (Example 1, leptin 10 ng/mL, data not shown): stimulated the phosphorylation; phosphorylation of p70S6K and 4E-BP1 (Example 2, leptin 100 ng/ml): up-phosphorylated; S6K phosphorylation (Example 5, leptin 0.6 nM, data not shown): stimulated S6K phosphorylation, albeit less robustly; phosphorylation of S6K (Example 5, leptin 6 nM): stimulated the phosphorylation

Source: US20090274739A1, “METHODS AND COMPOSITIONS FOR TREATING NEOINTIMAL HYPERPLASIA” (THE TRUSTEES OF COLUMBIA UNIVERSITY IN THE CITY OF NEW YORK, priority 2006, published 2009)
